In patent publication US6254898A, “Nutraceutical composition for protection against solar radiation” (Protective Factors, Inc., priority 2000, dated 2001):

Key:
[1] = biological target: T1, Trypsin Type III from bovine pancreas (Bos taurus, UniProt P00760); test: Trypsin inhibitory activity (BAPNA substrate); format: biochemical; conditions: at the dilutions tested for the blend
T1 construct: purchased Sigma; host or cells: bovine pancreas
T1 sequence (P00760 24-246): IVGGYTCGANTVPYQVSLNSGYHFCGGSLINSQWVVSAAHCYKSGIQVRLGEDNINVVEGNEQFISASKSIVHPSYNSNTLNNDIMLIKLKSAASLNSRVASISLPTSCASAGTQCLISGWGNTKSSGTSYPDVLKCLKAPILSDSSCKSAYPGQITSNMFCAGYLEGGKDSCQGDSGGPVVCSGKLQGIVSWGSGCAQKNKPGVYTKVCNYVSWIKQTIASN
Experimental: Serine protease inhibitory activity was determined in vitro by measuring the trypsin inhibitory activity of the blend and its components. Trypsin inhibitory activity was determined by the spectrophotometric determination of the release of p-nitroaniline from a synthetic substrate N-α-benzoyl-DL-arginine-p-nitroanilide hydrochloride (BAPNA) (Parellada, J. and Guinea, M., J. Nat. Prod., 58: 823-829, 1995; Geiger, R. and Fritz, H., In Methods of Enzymatic Analysis, Bergmeyer, H. V., et al (Eds), Verlag-Chemie, Basel, Switzerland, Vol. V, p. 119-129, 1984).
Trypsin Type III from bovine pancreas, BAPNA, and p-nitroaniline were obtained from Sigma. The inventive blend and its components were supplied in a capsule containing: green tea extract, 250 mg; lutein, 15 mg; Se, 50 mcg; and lipoic acid, 50 mg. The capsule's contents were extracted in ethanol [0.5 g (contents of one capsule) in 5 ml ethanol and the components at concentrations incorporated in the blend in 5 ml ethanol].
Aliquots of the enzyme solution (0.25 ml of a 1060 units/ml solution in 0.05 M Tris buffer, pH 7.8) and the buffer (0.25 ml) with various concentrations of the test extracts and without extracts (reference solution) were pre-incubated at 37° C. for 10 min. Blank samples were prepared by inactivating the enzyme with 0.5 ml of 2 M acetic acid before incubation. The enzymatic reaction was started by adding to the reaction mixture 1.25 ml of the substrate solution (1 mM in 0.05 M Tris buffer, pH 7.8). The mixture was incubated for 10 min and the reaction was stopped by adding 0.5 ml of 2 M acetic acid. The p-nitroaniline released was measured using a spectrophotometer at 410 nm. The results are the means ±SD of triplicate measurements. The inhibitory activity is expressed as the inhibition ratio represented by the following formula: [formula]

[2] = tested on: fibroblast cell line BALB/3T3 clone A31; test: UV protecting activity: viability of UVA-irradiated fibroblasts (MTT assay); format: cell-based, mouse; conditions: UVA-irradiated BALB/3T3 cells
Experimental: Exposure of skin to sunlight especially to ultraviolet A (320-380 nm) radiation has been reported to induce photochemical generation of reactive oxygen species, resulting in membrane lipid peroxidation, photodamage to DNA, and inactivation of fibroblasts. […] A mammalian fibroblast cell line was used to determine the UV-protective action of the blend and the components at a cellular level.
Dulbecco's Modified Eagle Medium (DMEM) with 4 mM L-glutamine and 110 mg/l sodium pyruvate, Dulbecco's phosphate buffered saline (DPBS) without calcium or magnesium, fetal bovine serum, trypsin-EDTA solution, 2-thiobarbituric acid, MTT, and trichloroacetic acid were obtained from Sigma. […] The capsule's contents were extracted in ethanol [0.5 g (contents of one capsule) in 5 ml ethanol and the components at concentrations incorporated in the blend in 5 ml ethanol]. The extracts were diluted using the culture medium or DPBS.
Cells were maintained in 250 ml Corning flasks having a 0.2 μ vented cap in 10 ml of DMEM supplemented with 10% fetal bovine serum. The cultures were incubated at 37° C. in a CO2 incubator with 90% air and 10% CO2. The cells were subcultured every 5 days.
Assays were performed in 35 mm Costar tissue culture plates. The cells were plated at a density of 90,000 cells per well in the growth medium and allowed to attach and grow for 48 hr. The medium was changed after 36 hr with fresh medium containing the extracts at different concentrations. After 12 hr of incubation with the test extracts, the cells were washed with DPBS to remove the original medium. One ml of DPBS with or without the test extracts was added to each dish. The cells were incubated for 1 hr before exposure to UV irradiation. Non-irradiated cells were used as the control. […] Biophys. […] The results are the means ±SD of triplicate measurements.

[3] = DPPH radical reduction (cell-free spectrophotometric assay); format: biochemical; conditions: at the dilutions tested
Experimental: (§1) The cytotoxic effects of ultraviolet A irradiation on mammalian cells (e.g., skin fibroblasts) have been attributed largely to photoreactions that generate reactive oxygen species, such as superoxide and hydrogen peroxide. The free radical scavenging activity of the blend and its components was determined in vitro using spectrophotometric assays (Yen, G. C. and Duh, P. D., J. Agric. Food Chem., 42: 629-632, 1994; Facino, R. M., Carini, M., Aldini, G., Berti, F., and Rossoni, G., Planta Med., 65: 614-619, 1999). The superoxide scavenging activity was assessed in a non-enzymatic system. The reduction of the stable free radical DPPH (2,2-diphenyl-1-picrylhydrazyl radical), indicative of the neutralizing action upon the already formed free radicals, also was determined in a cell-free system. […]
(§2) The superoxide scavenging activity was determined in a superoxide generating system containing 20 μM of phenazine methosulfate, 156 μM of β-NADH, 50 mM of phosphate buffer, and the extracts at various levels. The reaction was initiated by adding nitroblue tetrazolium (25 μM) and the reduction was monitored using a spectrophotometer at 556 nm. […] The reduction in absorbence was measured using a spectrophotometer at 515 nm. […] The percent inhibition is expressed as the quenching ratio represented by the following formula: [formula]

[4] = Superoxide scavenging activity in a non-enzymatic superoxide generating system; format: biochemical; conditions: at the dilutions tested
Experimental: as §1, §2

| trypsin: activity of the components [1] | SMILES | UV protection: activity of the components [2] | range of concentrations at which the component was active in the UV protection assay [2] | DPPH: activity among the four components [3] | superoxide: activity among the four components [4] |
| --- | --- | --- | --- | --- | --- |
| active | CC1=C[C@H](O)CC(C)(C)[C@H]1/C=C/C(C)=C/C=C/C(C)=C/C=C/C=C(C)/C=C/C=C(C)/C=C/C1=C(C)C[C@@H](O)CC1(C)C [lutein] | active | – | most active | – |
| active | O=C(O)CCCCC1CCSS1 (stereo not shown) [lipoic acid, 6,8-thioctic acid] | active | 1 to 1000 µg/mL | – | most active |

| SMILES | trypsin: activity of the components [1] | UV protection: activity of the components [2] | range of concentrations at which the component was active in the UV protection assay [2] | DPPH: activity among the four components [3] | superoxide: activity among the four components [4] |
| --- | --- | --- | --- | --- | --- |
| C[Se]CC[C@H](N)C(=O)O [selenium, selenomethionine] | active | active | 0.001 to 1 µg/mL | – | – |
